Some test systems named below: SN12C renal; SK-OV-3 ovarian; HCT-116 colon; SF-268 CNS; SR leukemia; A549 NSCLC; SF-295 CNS; OVCAR-8 ovarian; CCRF-CEM leukemia; TK-10 renal; HCT-15 colon; OVCAR-3 ovarian; MALME-3M melanoma.
What all share (experiment): NCI-60 cell line screen, 48 h

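Briefly, cells in 96-well plates were exposed to five compound concentrations for 48 h, and endpoints were estimated by linear interpolation. At the TGI there is no net growth.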 Where a SMILES comes first, the peptide text is derived from it. [ ]: non-standard residue; d: D form. The star is where a group is joined. Tyr(3-Br) = N[C@@H](Cc1ccc(O)c(Br)c1)C(=O)O; Boc = CC(C)(C)OC(=O)* Where only a bound is given, the exact number is not on record here.

`Cc1cccc(CC(Cc2c(C)cccc2C(=O)O)C(=O)O)c1` (stereo unspecified): the TGI in the test on SN12C renal, in the test with SK-OV-3 ovarian, in the test with HCT-116 colon, in the test with SF-268 CNS, with SR leukemia and in the test with A549 NSCLC was over 100 µM each time. In addition, the TGI with SF-295 CNS, in the test on OVCAR-8 ovarian, in the test with CCRF-CEM leukemia, in the test with TK-10 renal, in the test on HCT-15 colon and in the test with OVCAR-3 ovarian was over 100 µM in each case. In addition, the TGI with MALME-3M melanoma was over 100 µM.
Consider `c1ccc(C2=NOC3(c4ccccc4)SC4CCCCC4CN23)cc1` (stereo unspecified), for which the TGI was over 100 µM in the test with SN12C renal; over 100 µM with SK-OV-3 ovarian; 50.4 µM in the test with HCT-116 colon; 95.5 µM in the test on SF-268 CNS; over 100 µM with SR leukemia; 58.5 µM in the test with A549 NSCLC. The TGI with SF-295 CNS was over 100 µM; with CCRF-CEM leukemia it was 31.6 µM; with TK-10 renal it was over 100 µM; with HCT-15 colon, over 100 µM; with OVCAR-3 ovarian it was over 100 µM; in the test with MALME-3M melanoma it was over 100 µM.
`Cc1ccc2c(n1)C(=O)C=CC2=O`: the TGI with SN12C renal is 29.8 µM; in the test with SK-OV-3 ovarian, 49.5 µM; with HCT-116 colon it was 4.12 µM; with SF-268 CNS, 42.7 µM; with SR leukemia, over 100 µM; in the test on A549 NSCLC it was 41.2 µM. For the same molecule, the TGI is 35.7 µM in the test on SF-295 CNS; 33.7 µM with OVCAR-8 ovarian; over 22.4 µM in the test on CCRF-CEM leukemia; 6.21 µM in the test with TK-10 renal; 26.3 µM with HCT-15 colon; 8.54 µM in the test with OVCAR-3 ovarian. Besides, the TGI with MALME-3M melanoma came to 16.8 µM.
In the case of `COC(=O)[C@H](Cc1ccc(O)c(Br)c1)NC(=O)[C@H](Cc1ccc(O)cc1)NC(=O)OC(C)(C)C` (Boc-Tyr-[Tyr(3-Br)]-OMe), the TGI in the test with SN12C renal, with SK-OV-3 ovarian, in the test on HCT-116 colon, in the test with SF-268 CNS, in the test on SR leukemia and in the test with A549 NSCLC was over 100 µM throughout. For the same molecule, the TGI was over 100 µM in the test with SF-295 CNS; 37.5 µM in the test with OVCAR-8 ovarian; 51.2 µM in the test on CCRF-CEM leukemia; over 100 µM with TK-10 renal; 44 µM in the test with HCT-15 colon; 38.3 µM in the test on OVCAR-3 ovarian. This molecule also gave a TGI in the test with MALME-3M melanoma of 57.2 µM.
Consider `COc1cc(C2SC(N)=Nc3c2c(C)nn3C(=O)c2ccccc2O)ccc1O` (stereo unspecified), for which the TGI with SN12C renal is over 10 µM; in the test on SK-OV-3 ovarian, over 10 µM; with HCT-116 colon, over 10 µM; with SF-268 CNS it was over 10 µM; in the test with SR leukemia it was over 2.73 µM; with A549 NSCLC it was over 10 µM. For the same molecule, the TGI in the test on SF-295 CNS, in the test with OVCAR-8 ovarian, in the test with CCRF-CEM leukemia, in the test on TK-10 renal, in the test with HCT-15 colon and in the test on OVCAR-3 ovarian was over 10 µM throughout. The same molecule returned a TGI with MALME-3M melanoma of over 10 µM.
Turning to `C=C1C(=O)OC2/C=C(/C)C3CC(O)C(C)(CC(OC(=O)/C(C)=C/C)C12)O3` (stereo unspecified), the TGI in the test on SN12C renal was 11.3 µM; in the test on SK-OV-3 ovarian, over 65.2 µM; in the test on HCT-116 colon it was 3.08 µM; in the test with SF-268 CNS, 14.4 µM; in the test with SR leukemia it was over 24 µM; in the test with A549 NSCLC, 23.6 µM. For the same molecule, the TGI in the test on SF-295 CNS was over 54 µM; with OVCAR-8 ovarian, 3.99 µM; in the test with CCRF-CEM leukemia, 8.1 µM; in the test with TK-10 renal it was 20.1 µM; in the test on HCT-15 colon, 3.61 µM; with OVCAR-3 ovarian it was 14.2 µM. In the test on MALME-3M melanoma, the TGI is 4.48 µM.
On to `Nc1ncc(Cl)c(NCC2(CO)CC(CCc3ccccc3)C2)n1` (stereo unspecified), for which the TGI with SN12C renal, in the test with SK-OV-3 ovarian, in the test on HCT-116 colon, in the test with SF-268 CNS, with SR leukemia and in the test with A549 NSCLC was over 100 µM each time. Moreover, the TGI in the test with SF-295 CNS, in the test with OVCAR-8 ovarian, in the test with CCRF-CEM leukemia, in the test with TK-10 renal, in the test on HCT-15 colon and with OVCAR-3 ovarian was over 100 µM throughout. Besides, the TGI in the test on MALME-3M melanoma is over 100 µM.
As for `C/C=C1/CN2CCC3(O)c4ccccc4N4C=C(C(=O)OC)C1CC2C43O` (stereo unspecified), the TGI with SN12C renal, in the test on SK-OV-3 ovarian, in the test on HCT-116 colon, with SF-268 CNS, in the test on SR leukemia and in the test on A549 NSCLC was over 100 µM each time. Also, the TGI with SF-295 CNS, in the test on OVCAR-8 ovarian, in the test with CCRF-CEM leukemia, in the test with TK-10 renal, in the test with HCT-15 colon and in the test with OVCAR-3 ovarian was over 100 µM throughout. In the test on MALME-3M melanoma, the TGI was over 100 µM.
`Cc1cc(N=Nc2c(O)ccc3ccccc23)ccc1N=Nc1cccc([N+](C)(C)C)c1`: the TGI in the test on SN12C renal is over 80 µM; in the test on SK-OV-3 ovarian it was over 75.3 µM; in the test on HCT-116 colon it was 75.5 µM; with SF-268 CNS, 57.1 µM; with SR leukemia, over 100 µM; in the test on A549 NSCLC it was over 52.2 µM. Further, the TGI is 51.9 µM with SF-295 CNS; 57.3 µM in the test with OVCAR-8 ovarian; over 34.3 µM in the test with CCRF-CEM leukemia; 49.5 µM in the test on TK-10 renal; over 84.4 µM with HCT-15 colon; 41 µM in the test on OVCAR-3 ovarian. For the same molecule, the TGI with MALME-3M melanoma is 35.2 µM.
Regarding `CCN(CC)CCNC(=O)c1ccc(I)cc1`, the TGI in the test on SN12C renal, in the test on SK-OV-3 ovarian, in the test with HCT-116 colon, with SF-268 CNS, in the test with SR leukemia and in the test with A549 NSCLC was over 100 µM throughout. The TGI with SF-295 CNS, in the test on OVCAR-8 ovarian, in the test with CCRF-CEM leukemia, in the test with TK-10 renal, in the test with HCT-15 colon and in the test on OVCAR-3 ovarian was over 100 µM each time. The same molecule came in with a TGI with MALME-3M melanoma of over 100 µM.
With `Cc1nc2c(nc1C)-c1c(c3c(n1C)C(=O)CCC3)C(=O)C2=O`, the TGI amounted to 0.52 µM in the test with SN12C renal; 2.61 µM in the test on SK-OV-3 ovarian; 1.44 µM with HCT-116 colon; 1.22 µM with SF-268 CNS; 0.769 µM in the test on SR leukemia; 4.56 µM in the test on A549 NSCLC. The TGI in the test with SF-295 CNS came out at 3.71 µM; in the test with OVCAR-8 ovarian, 0.638 µM; with CCRF-CEM leukemia it was 0.524 µM; with TK-10 renal, 4.51 µM; in the test on HCT-15 colon it was 1.36 µM; in the test with OVCAR-3 ovarian it was 0.646 µM. In addition, in the test with MALME-3M melanoma, the TGI worked out at 0.669 µM.
Turning to `O=C(Nc1c(C(F)(F)F)cc(-c2ccccc2)[nH]c1=O)N1CCOCC1`, the TGI in the test with SN12C renal, with SK-OV-3 ovarian, in the test with HCT-116 colon, in the test with SF-268 CNS, in the test on SR leukemia and with A549 NSCLC was over 100 µM each time. For the same molecule, the TGI with SF-295 CNS, with OVCAR-8 ovarian, in the test with CCRF-CEM leukemia, in the test with TK-10 renal, in the test with HCT-15 colon and in the test with OVCAR-3 ovarian was over 100 µM in each case. Also, the TGI with MALME-3M melanoma was over 100 µM.
For `OC[C@]1(n2nc3ccccc3n2)OC[C@@H]1c1ccccc1`, the TGI in the test on SN12C renal, with SK-OV-3 ovarian, in the test on HCT-116 colon, in the test on SF-268 CNS, in the test on SR leukemia and with A549 NSCLC was over 100 µM each time. Besides, the TGI in the test with SF-295 CNS was over 100 µM; in the test with OVCAR-8 ovarian, over 100 µM; with CCRF-CEM leukemia, over 100 µM; with TK-10 renal, over 100 µM; with HCT-15 colon, over 100 µM; in the test on OVCAR-3 ovarian it was 71.2 µM. Besides, the TGI with MALME-3M melanoma is over 100 µM.
For the molecule `CN(CCO)c1nc(N)cc(=O)[nH]1`, the TGI with SN12C renal, with SK-OV-3 ovarian, with HCT-116 colon, in the test on SF-268 CNS, with SR leukemia and with A549 NSCLC was over 100 µM in each case. Further, the TGI with SF-295 CNS, in the test on OVCAR-8 ovarian, with CCRF-CEM leukemia, in the test with TK-10 renal, with HCT-15 colon and with OVCAR-3 ovarian was over 100 µM each time. In the test with MALME-3M melanoma, the TGI is over 100 µM.
Take `CCOc1ccc(NC(=O)/C(=N\NC(C)(C)C)C2C(=O)Nc3ccccc3S2=O)cc1` (stereo unspecified): the TGI in the test on SN12C renal, in the test on SK-OV-3 ovarian, with HCT-116 colon, with SF-268 CNS, with SR leukemia and with A549 NSCLC was over 100 µM throughout. Further, the TGI in the test with SF-295 CNS, with OVCAR-8 ovarian, with CCRF-CEM leukemia, with TK-10 renal, with HCT-15 colon and in the test with OVCAR-3 ovarian was over 100 µM each time. The same molecule registered a TGI with MALME-3M melanoma of over 100 µM.
Take `CCOP(=O)(C/C=C/Cn1nc(Br)c(=O)[nH]c1=O)OCC`: the TGI in the test on SN12C renal, with HCT-116 colon, in the test on SF-268 CNS, with SR leukemia, with A549 NSCLC and in the test on SF-295 CNS was over 100 µM throughout. Moreover, the TGI with OVCAR-8 ovarian, in the test with CCRF-CEM leukemia, in the test with TK-10 renal, in the test with HCT-15 colon, in the test on OVCAR-3 ovarian and in the test with MALME-3M melanoma was over 100 µM throughout.
